We go through two compounds from patent US20090203707A1, “METHODS FOR TREATING PAIN” (priority 2008, published 2009).

Structures are written as SMILES.

This assay deals with SCN9A (Nav1.7) Na+ channel, α- and β1 subunits, in HEK293 cells (Homo sapiens, UniProt Q15858). Put plainly: Whole-cell patch clamp, Nav1.7 peak INa in HEK293 cells (Example 1). As to conditions: 0.1 Hz; for Mean amplitude of Nav1.7 peak INa, fraction of control: −100 mV to 0 mV, 50 msec; for p of logistic fit (Hill coefficient nH) for block of Nav1.7 peak INa / x0 of logistic fit (IC50) for block of Nav1.7 peak INa: holding −100 mV to 0 mV. Background: Patch clamp records ionic current or voltage across a cell membrane.
Chain of SCN9A (Nav1.7) Na+ channel, α- and β1 subunits, in HEK293 cells (Q15858 whole entry): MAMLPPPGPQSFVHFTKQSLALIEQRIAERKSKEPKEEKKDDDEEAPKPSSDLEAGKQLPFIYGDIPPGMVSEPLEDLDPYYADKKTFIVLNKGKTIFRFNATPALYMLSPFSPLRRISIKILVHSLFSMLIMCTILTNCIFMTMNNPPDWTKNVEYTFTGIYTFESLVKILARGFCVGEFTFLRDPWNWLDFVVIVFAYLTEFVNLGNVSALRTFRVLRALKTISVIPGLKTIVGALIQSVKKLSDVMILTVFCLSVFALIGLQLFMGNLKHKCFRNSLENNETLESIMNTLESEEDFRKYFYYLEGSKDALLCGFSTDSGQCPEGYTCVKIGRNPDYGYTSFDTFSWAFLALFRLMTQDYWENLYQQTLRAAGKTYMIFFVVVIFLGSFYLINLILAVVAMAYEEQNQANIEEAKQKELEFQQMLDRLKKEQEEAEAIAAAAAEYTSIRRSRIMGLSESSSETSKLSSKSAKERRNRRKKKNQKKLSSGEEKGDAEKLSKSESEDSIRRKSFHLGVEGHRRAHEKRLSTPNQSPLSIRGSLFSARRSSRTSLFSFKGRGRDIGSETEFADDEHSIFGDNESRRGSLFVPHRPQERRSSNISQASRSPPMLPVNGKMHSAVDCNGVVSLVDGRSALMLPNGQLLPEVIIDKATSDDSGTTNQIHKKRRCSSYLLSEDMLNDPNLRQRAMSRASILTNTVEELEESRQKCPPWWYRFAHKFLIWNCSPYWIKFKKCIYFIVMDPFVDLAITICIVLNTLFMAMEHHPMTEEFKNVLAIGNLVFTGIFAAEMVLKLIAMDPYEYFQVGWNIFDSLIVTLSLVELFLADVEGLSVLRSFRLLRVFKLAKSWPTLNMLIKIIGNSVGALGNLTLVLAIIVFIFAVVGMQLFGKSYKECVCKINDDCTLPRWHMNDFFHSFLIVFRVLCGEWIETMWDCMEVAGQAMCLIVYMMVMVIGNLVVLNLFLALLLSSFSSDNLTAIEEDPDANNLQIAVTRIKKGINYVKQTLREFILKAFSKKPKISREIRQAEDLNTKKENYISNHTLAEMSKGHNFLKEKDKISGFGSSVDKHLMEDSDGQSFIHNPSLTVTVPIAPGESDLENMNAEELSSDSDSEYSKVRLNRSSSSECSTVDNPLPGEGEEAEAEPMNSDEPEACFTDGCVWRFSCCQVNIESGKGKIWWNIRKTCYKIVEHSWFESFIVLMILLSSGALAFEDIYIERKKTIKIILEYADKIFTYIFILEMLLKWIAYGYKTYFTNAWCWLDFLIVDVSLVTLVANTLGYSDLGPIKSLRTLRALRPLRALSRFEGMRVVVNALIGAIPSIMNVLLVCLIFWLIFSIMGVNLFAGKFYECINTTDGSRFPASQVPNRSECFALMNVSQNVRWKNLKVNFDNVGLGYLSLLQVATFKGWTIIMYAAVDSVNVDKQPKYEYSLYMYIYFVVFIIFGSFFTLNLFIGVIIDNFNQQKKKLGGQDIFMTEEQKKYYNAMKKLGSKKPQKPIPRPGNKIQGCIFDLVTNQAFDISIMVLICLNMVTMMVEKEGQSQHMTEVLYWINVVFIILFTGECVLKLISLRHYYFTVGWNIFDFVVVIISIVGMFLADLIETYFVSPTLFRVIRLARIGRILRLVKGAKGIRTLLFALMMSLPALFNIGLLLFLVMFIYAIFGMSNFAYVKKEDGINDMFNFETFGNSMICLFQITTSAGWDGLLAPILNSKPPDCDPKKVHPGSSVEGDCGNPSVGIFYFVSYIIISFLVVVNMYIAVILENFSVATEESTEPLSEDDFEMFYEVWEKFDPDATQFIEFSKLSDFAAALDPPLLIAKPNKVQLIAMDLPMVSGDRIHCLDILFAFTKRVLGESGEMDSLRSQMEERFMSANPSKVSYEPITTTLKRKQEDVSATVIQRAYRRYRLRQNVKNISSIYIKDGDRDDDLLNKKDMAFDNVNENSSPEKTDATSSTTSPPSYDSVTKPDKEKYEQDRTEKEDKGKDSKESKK
Chain of SCN9A (Nav1.7) Na+ channel, α- and β1 subunits, in HEK293 cells (Q07699 19-218 partner): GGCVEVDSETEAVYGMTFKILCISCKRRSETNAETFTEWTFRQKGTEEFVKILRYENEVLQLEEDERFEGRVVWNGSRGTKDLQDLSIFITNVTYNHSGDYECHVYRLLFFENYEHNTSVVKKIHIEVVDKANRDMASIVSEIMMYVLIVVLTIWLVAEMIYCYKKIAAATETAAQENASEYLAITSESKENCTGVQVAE

As for `COc1ccccc1OC[C@H](O)CN1CCN(CC(=O)Nc2c(C)cccc2C)CC1` [R-Ranolazine, (R)-(+)-N-(2,6-dimethylphenyl)-4-[2-hydroxy-3-(2-methoxyphenoxy)-propyl]-1-piperazineacetamide], the “p of logistic fit (Hill coefficient nH) for block of Nav1.7 peak INa” value is on record as 1.212 and the “x0 of logistic fit (IC50) for block of Nav1.7 peak INa” value is reported as 11.33 μM. The “Mean amplitude of Nav1.7 peak INa, fraction of control” value (“Mean amplitude … fraction of control” below) (1 μM) amounted to 0.9252. For the same compound, the “Mean amplitude … fraction of control” value (3 μM) came out at 0.8286. Under “10 μM”, the “Mean amplitude … fraction of control” value worked out at 0.6336. Moreover, the “Mean amplitude … fraction of control” value (30 μM) is 0.2387. For the same compound, the “Mean amplitude … fraction of control” value (100 μM) came out at 0.07855.
On to `COc1ccccc1OC[C@@H](O)CN1CCN(CC(=O)Nc2c(C)cccc2C)CC1` [S-Ranolazine, (S)-(−)-N-(2,6-dimethylphenyl)-4-[2-hydroxy-3-(2-methoxyphenoxy)-propyl]-1-piperazineacetamide], for which the “p of logistic fit (Hill coefficient nH) for block of Nav1.7 peak INa” value is listed as 0.9409 and the “x0 of logistic fit (IC50) for block of Nav1.7 peak INa” value is 9.433 μM. For the same compound, the “Mean amplitude … fraction of control” value (1 μM) turned out to be 0.8788. In addition, the “Mean amplitude … fraction of control” value (3 μM) was determined as 0.7285. The “Mean amplitude … fraction of control” value (10 μM) is on record as 0.5358. Further, the “Mean amplitude … fraction of control” value (30 μM) came to 0.2883. Also, the “Mean amplitude … fraction of control” value (100 μM) came out at 0.06853.
